Values of other authors, collected in patent US20080319079A1 (priority 2006, published 2008).

What was measured:
[1] = tested on: patients with reversible obstructive respiratory diseases; conditions: for duration of action (bronchodilation): patients with asthma and related respiratory illnesses, inhalation
[2] = repeated doses administered frequently up to a maximum dose of 80 μg per day

| SMILES | duration of action (bronchodilation) [1] | onset of action ([1]; after inhalation) | side effects [2] |
| --- | --- | --- | --- |
| CC(C)(C)NCC(O)c1cc(O)cc(O)c1 (centres unmarked) [terbutaline] | four to six |  |  |
| CC(C)(C)NCC(O)c1ccc(O)c(CO)c1 (centres unmarked) [salbutamol] | four to six |  |  |
| OCc1cc(C(O)CNCCCCCCOCCCCc2ccccc2)ccc1O (centres unmarked) [Salmeterol] | twelve | approximately thirty |  |
| COc1ccc(CC(C)NCC(O)c2ccc(O)c(NC=O)c2)cc1 (centres unmarked) [formoterol, N-[2-hydroxy-5-(1-hydroxy-2-((2-(4-methoxyphenyl)-1-methylethyl)-amino)-ethyl)phenyl]formamide] |  |  | no more side effects than short acting bronchodilators |
